What was measured:
[1] = test system: MLKL translocation in transfected THP-1 cells; assay: Flag-MLKL translocation to cell membrane, immunofluorescent staining, confocal microscopy; type: cell-based, human; conditions: transfected THP-1 cells stimulated with compound and TBZ, FIG. 3
Experimental: A human monocyte cell line THP-1 and a human colon cancer cell line HT-29 were maintained in a 10% FBS-Roswell Park Memorial Institute (RPMI) 1640 medium supplemented with 2 mM L-glutamine, 100 U/ml penicillin, and 100 μg/ml streptomycin at 37° C. under a 5% CO2 condition. The THP-1 cells were differentiated into macrophages in an RPMI 1640 medium containing 500 nM Phorbol 12-myristate 13-acetate (PMA) for 3 hours. Human mixed lineage kinase domain-like protein (MLKL)-flag plasmid (Sino Biological, HG12810-CF) transfection was performed using the electroporation system (Invitrogen) of MicroPorator-mini (Digital Bio).
Cells were seeded on cell culture-treated glass chamber slides. The cells were pretreated with Z-VAD, BV6, and the indicated compound for 1 hour, and then treated with TNF-α and BV6 overnight. Subsequently, the cells were washed with phosphate-buffered saline (PBS) and fixed in 4% paraformaldehyde for 10 minutes. Before incubation for 10 minutes in 0.25% Triton X-100 in PBS, the cells were washed three more times with PBS. The cells were blocked with 5% bovine serum albumin (BSA) in PBS for 30 minutes and stained using an anti-Flag (Sigma, F7425-2MG) antibody. The nuclei were stained with DAPI (Invitrogen, 00-4959-52). Images were captured using a confocal microscope (Olympus, FV1000). […]

MLKL protein = target: T1, MLKL protein (Homo sapiens, UniProt Q8NB16); assay: Surface plasmon resonance (SPR) analysis, binding to MLKL protein; conditions: MLKL immobilized on CM5 chip, Biacore T200, 25° C., 10 mM HEPES pH 7.4
T1 construct: purchased Abcam ab241453
T1 sequence (Q8NB16 1-471): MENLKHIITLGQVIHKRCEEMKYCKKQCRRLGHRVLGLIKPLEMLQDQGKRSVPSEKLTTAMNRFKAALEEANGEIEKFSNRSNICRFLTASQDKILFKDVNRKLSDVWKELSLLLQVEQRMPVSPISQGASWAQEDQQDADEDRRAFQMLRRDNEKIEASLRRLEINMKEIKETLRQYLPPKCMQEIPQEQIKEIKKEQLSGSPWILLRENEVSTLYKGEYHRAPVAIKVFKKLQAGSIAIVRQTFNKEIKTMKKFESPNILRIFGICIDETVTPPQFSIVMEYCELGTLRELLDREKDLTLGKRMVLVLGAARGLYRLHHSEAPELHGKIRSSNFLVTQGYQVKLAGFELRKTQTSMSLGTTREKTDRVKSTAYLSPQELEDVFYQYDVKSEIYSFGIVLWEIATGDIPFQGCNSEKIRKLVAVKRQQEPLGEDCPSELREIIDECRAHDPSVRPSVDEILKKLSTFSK
Experimental: (§1) The interaction between MLKL and apomorphine (=APO) was detected through surface plasmon resonance (SPR) analysis using Biacore T200 (GE Healthcare). For pH scouting, a buffer consisting of 10 mM sodium acetate (pH 4.0 to 6.0) was used. MLKL protein (Abcam, ab241453), and MLKL N-term (amino acids 1-154) protein that had been purified in a laboratory were immobilized on the surface of a sensor chip CM5 (GE Healthcare) under scouted buffer conditions. To deduce an Rligand value, a coupling process was performed based on the molecular weights of MLKL, MLKL N-term domain (MW ligand), and APO (MW analyte). Oxidized (24 hr, RT incubation) and reduced (+DTT(DL-dithiothreitol)) forms of APO were injected into a running buffer (flow rate: 10 μl/min) consisting of 10 mM HEPES (pH 7.4) at 25° C. A sensorgram was recorded and analyzed in real time using control software provided by the Biacore T200 system itself. Six or more concentrations of APO were used in combination, and each KD value was derived. All run data was calculated using BIAevaluation Software (GE Healthcare).
(§2) SPR analysis was used to analyze the interaction pattern between APO and the MLKL protein (Experimental Method 1-10). […] Here, the analysis was performed by binding MLKL and the MLKL N-term domain protein immobilized on a CM5 chip with APO having six concentrations.

MLKL oligomerization = MLKL oligomerization (tetramer and octamer bands) by non-reducing or reducing SDS-PAGE; type: cell-based, human; conditions: cytoplasmic and membrane fractions, necroptosis induced with TBZ, FIG. 2 / FIG. 6A
Experimental: Cells were pretreated with Z-VAD (invivoGen, tlrl-vad) and a compound for 1 hour, and necroptosis was induced with TNF-α (ATGen, TNF0501) and BV6 (Biovision, B1332-5) for the indicated time. The prepared cells were appropriately treated according to analysis (Z-VAD: carbobenzoxy-valyl-alanyl-aspartyl, TNF-α: tumor necrosis factor-α, BV6: 4,4′-(1,6-hexanediyl)bis[N-methyl-L-alanyl-(2S)-2-cyclohexylglycyl-L-prolyl-β-phenyl-L-phenylalaninamide)
Cells were treated with a drug candidate and then collected using centrifugation at 4° C. and 1,500×g for 5 minutes. A supernatant was centrifuged again at 4° C. and 1,500×g for 5 minutes to remove remaining debris, concentrated at 4° C. and 14,000×g for 30 minutes using Amicon ultra-0.5 centrifugal filter unit 10K (Millipore, UFC501096), and stored. […] The extracted protein concentration was measured using a bicinchoninic acid (BCA) protein assay kit (Thermo Fisher Scientific, 23225). […]
To test whether the tetramer and octamer formation of p-MLKL for pore formation in the cell membrane is inhibited by apomorphine (APO), cells that had been treated with each molecule for the indicated time were separated into cytoplasmic and membrane fractions and analyzed through non-reducing or reducing sodium dodecyl sulfate-polyacrylamide gel electrophoresis (SDS-PAGE), and then investigated with specific antibodies (Experimental Method 1-6). […]

[2] = target: T2, MLKL N-term domain (amino acids 1-154) (Homo sapiens, UniProt Q8NB16); assay: Surface plasmon resonance (SPR) analysis, binding to MLKL N-term domain; conditions: MLKL N-term domain immobilized on CM5 chip, Biacore T200, 25° C., 10 mM HEPES pH 7.4
T2 construct: MLKL N-term (amino acids 1-154) protein that had been purified in a laboratory; made in house
T2 sequence (Q8NB16 1-154): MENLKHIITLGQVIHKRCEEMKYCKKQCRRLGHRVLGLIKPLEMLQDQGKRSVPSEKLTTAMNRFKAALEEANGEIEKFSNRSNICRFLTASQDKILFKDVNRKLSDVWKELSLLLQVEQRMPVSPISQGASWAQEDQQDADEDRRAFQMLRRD
Experimental: as §1, §2

| Kd (MLKL protein) [µM] | Kd [2] [µM] | Structure (SMILES) | distribution of Flag-MLKL signals [1] | intensities of the tetramer and octamer bands of MLKL (MLKL oligomerization) |
| --- | --- | --- | --- | --- |
| – | – | CN1C(=O)C(Cc2c[nH]c3ccccc23)NC1=S (stereo not shown) [NEC-1, necrostatin-1] | mostly distributed in the cytoplasm | – |
| 0.244 | 1140 | CN1CCc2cccc3c2[C@H]1Cc1ccc(O)c(O)c1-3 [reduced APO] | – | no change |
